≈ marks a conversion by molar mass, not a printed value. Where two headings read alike, the source gives them in different places.
Legend:
[1] = system: lipoprotein lipase (LPL) gene; assay: LPL mRNA elevating action (RT-PCR quantification of LPL mRNA in C2Cl2 cells); type: cell-based, mouse; details: Mus musculus, 24 h, compound 10 μM, ratio relative to the amount of LPL mRNA in cells with DMSO only, read-out: Rate of increase in LPL mRNA
Summary of the method: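 Mouse striated-muscle C2Cl2 cells in DMEM with 10% FBS exposed to compounds at 10 μM for 24 h. LPL mRNA quantified by RT-PCR and real-time PCR (20 cycles), expressed as ratio to DMSO-only cells set at 1.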

[2] = Solubility in gastric juice or intestinal juice model fluid (precipitation method using DMSO); type: physicochemical; details: room temperature
Summary of the method: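 Compound in DMSO added to JP disintegration test fluid 1 (pH 1.2) or fluid 2 (pH 6.8) and shaken 24 h at room temperature. After filtration, dissolved concentration (μg/mL) determined by UV absorbance against compound calibration curves.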

[3] = pH 1.2, simulated gastric fluid, kinetic from dmso stock, 1st fluid for Disintegration Test of Japanese Pharmacopoeia (pH: 1.2), read-out: Solubility (μg/mL) 1st fluid
[4] = pH 6.8, kinetic from dmso stock, 2nd fluid for Disintegration Test of Japanese Pharmacopoeia (pH: 6.8), read-out: Solubility (μg/mL) 2nd fluid

melting point | solubility at 24 h [2, 3] | solubility at 24 h [2, 4] | Solubility (μg/mL) 1st fluid ([2]; 1st fluid for Disintegration Test of Japanese Pharmacopoeia (pH: 1.2), 24 hours) | Structure (SMILES) | fold induction at 10 µM [1]
158 to 160 °C | 105 µg/mL (≈ 191 µM) | 1.3 µg/mL (≈ 2.38 µM) | – | COc1cc(-c2[nH]c(C3CCCC(F)(F)C3)nc2Br)ccc1OCc1ccc(C(F)(F)F)cn1 (centres unmarked) [Example 170] | 3.36
168 to 170 °C | 98.5 µg/mL (≈ 190 µM) | 1.7 µg/mL (≈ 3.28 µM) | – | COc1cc(-c2[nH]c(C3CC(F)(F)C3)nc2Br)ccc1OCc1ccc(C(F)(F)F)nc1 [Example 178] | 3.58
170 to 174 °C | 25.8 µg/mL (≈ 54.5 µM) | 2.3 µg/mL (≈ 4.85 µM) | – | COc1cc(-c2[nH]c(C3CC(F)(F)C3)nc2Cl)ccc1OCc1ccc(C(F)(F)F)nc1 [Example 179] | 2.66
199 to 201 °C | 93.4 µg/mL (≈ 197 µM) | < 0.3 µg/mL | – | COc1cc(OCc2ccc(C(F)(F)F)nc2)ccc1-c1[nH]c(C2CC(F)(F)C2)nc1Cl [Example 181] | 4.53
170 to 171 °C | 99 µg/mL (≈ 181 µM) | 1.1 µg/mL (≈ 2.01 µM) | – | COc1cc(OCc2ccc(C(F)(F)F)cn2)ccc1-c1[nH]c(C2CCCC(F)(F)C2)nc1Br (centres unmarked) [Example 183] | 4.26
191 to 193 °C | 86.4 µg/mL (≈ 182 µM) | 1.9 µg/mL (≈ 4.01 µM) | – | COc1cc(OCc2ccc(C(F)(F)F)cn2)ccc1-c1[nH]c(C2CC(F)(F)C2)nc1Cl [Example 188] | 2.95
159 to 161 °C | 89 µg/mL (≈ 182 µM) | 11.6 µg/mL (≈ 23.8 µM) | – | COc1cc(-c2[nH]c(C3CCC(F)(F)C3)nc2Cl)ccc1OCc1ccc(C(F)(F)F)cn1 (centres unmarked) [Example 189] | 3.51
151 to 157 °C | 92.5 µg/mL (≈ 178 µM) | 2 µg/mL (≈ 3.86 µM) | – | COc1cc(-c2[nH]c(C3CC(F)(F)C3)nc2Br)ccc1OCc1ccc(C(F)(F)F)cn1 [Example 190] | 3.58
201 to 203 °C (dec.) | 25.9 µg/mL (≈ 54.7 µM) | 1.7 µg/mL (≈ 3.59 µM) | – | COc1cc(-c2[nH]c(C3CC(F)(F)C3)nc2Cl)ccc1OCc1ccc(C(F)(F)F)cn1 [Example 191] | 4.06
158 to 165 °C | > 109 µg/mL | 17.4 µg/mL (≈ 31.8 µM) | – | COc1cc(-c2[nH]c(C3CCC(F)(F)CC3)nc2Br)ccc1OCc1ccc(C(F)(F)F)cn1 [Example 198] | 6.36
162 to 165 °C | > 115 µg/mL | < 10.2 µg/mL | – | COc1c(OCc2ccc(C(F)(F)F)nc2)ccc(-c2[nH]c(C3CCC(F)(F)CC3)nc2Br)c1OC [Example 199] | 5.05
148 to 150 °C | 98.4 µg/mL (≈ 185 µM) | 2.4 µg/mL (≈ 4.51 µM) | – | COc1c(OCc2ccc(C(F)(F)F)nc2)ccc(-c2[nH]c(C3CCC(F)(F)CC3)nc2Cl)c1OC [Example 200] | 4.73
164 to 167 °C | 63.8 µg/mL (≈ 127 µM) | < 1.8 µg/mL | – | COc1cc(-c2[nH]c(C3CCC(F)(F)CC3)nc2Cl)ccc1OCc1ccc(C(F)(F)F)nc1 [Example 203] | 5.47
122 to 125 °C | > 100 µg/mL | < 8.9 µg/mL | – | COc1cc(OCc2ccc(C(F)(F)F)nc2)ccc1-c1[nH]c(C2CCC(F)(F)CC2)nc1Cl [Example 204] | 5.07
175 to 177 °C | 99.4 µg/mL (≈ 198 µM) | < 0.4 µg/mL | – | COc1cc(-c2[nH]c(C3CCC(F)(F)CC3)nc2Cl)ccc1OCc1ccc(C(F)(F)F)cn1 [Example 209] | 5.34

More lines, now with the values behind:

Structure (SMILES) | melting point | solubility at 24 h [2, 3] | solubility at 24 h [2, 4] | Solubility (μg/mL) 1st fluid ([2]; 1st fluid for Disintegration Test of Japanese Pharmacopoeia (pH: 1.2), 24 hours) | fold induction at 10 µM [1]
COc1cc(OCc2ccc(C(F)(F)F)nc2)ccc1-c1c(C)nc(-c2ccc(Cl)nc2)n1CC1CC1 [Example 155] | 164 to 166 °C | > 106 µg/mL | 3 µg/mL (≈ 5.67 µM) | – | 3.06
COc1cc(OCc2ccc(C(F)(F)F)cn2)ccc1-c1c(C)nc(-c2ccc(Cl)nc2)n1CC1CC1 [Example 157] | 145 to 148 °C | 106 µg/mL (≈ 199 µM) | 1.9 µg/mL (≈ 3.59 µM) | – | 4.05
COc1cc(OCc2ccc(C(F)(F)F)nc2)ccc1-c1c(C)nc(-c2ccc(F)nc2)n1C [Example 161] | 123 to 126 °C | > 94 µg/mL | 3.9 µg/mL (≈ 8.25 µM) | – | 3.06
COc1cc(OCc2ccc(C(F)(F)F)cn2)ccc1-c1c(C)nc(-c2ccc(Cl)nc2)n1C [Example 165] | 152 to 154 °C | 96 µg/mL (≈ 196 µM) | 2.1 µg/mL (≈ 4.3 µM) | – | 3.34
COCn1cc(-c2ccc(OCc3ccc(C(F)(F)F)cn3)cc2OC)nc1-c1ccc(Cl)nc1 [Example 167] | 138 to 140 °C | 100 µg/mL (≈ 199 µM) | 0.4 µg/mL (≈ 0.792 µM) | – | 2.23
COc1cc(OCc2ccc(C(F)(F)F)cn2)ccc1-c1nc(-c2ccc(F)nc2)n(C)c1Cl [Example 169, 2-[[4-(5-chloro-2-(6-fluoropyridin-3-yl)-1-methyl-1H-imidazol-4-yl)-3-methoxyphenoxy]methyl]-5-(trifluoromethyl)pyridine] | 158 to 160 °C (dec.) | 96.3 µg/mL (≈ 195 µM) | < 0.4 µg/mL | – | 3.12
COc1cc(OCc2ncc(Br)cc2F)ccc1-c1[nH]c(-c2ccc(F)nc2)nc1Cl [Example 175] | 122 to 124 °C | 10 µg/mL (≈ 19.7 µM) | 2.5 µg/mL (≈ 4.92 µM) | – | 3.94
COc1cc(OCc2ccc(C(F)(F)F)cn2)ccc1-c1[nH]c(C2CCCC(F)(F)C2)nc1Cl (centres unmarked) [Example 182] | 162 to 164 °C | 95.5 µg/mL (≈ 190 µM) | 1.9 µg/mL (≈ 3.79 µM) | – | 3.41
COc1cc(OCc2ncccc2C#N)ccc1-c1[nH]c(C2CCC(F)(F)CC2)nc1Cl [Example 185] | 161 to 162 °C | 87.4 µg/mL (≈ 190 µM) | 23.1 µg/mL (≈ 50.3 µM) | – | 2.41
COc1cc(-c2[nH]c(C3CCC3)nc2Cl)ccc1OCc1ccc(C(F)(F)F)cn1 [Example 193] | 158 to 170 °C | 86.4 µg/mL (≈ 197 µM) | 0.8 µg/mL (≈ 1.83 µM) | – | 4.32
COc1cc(-c2[nH]c(C3CCCC3)nc2Cl)ccc1OCc1ccc(C(F)(F)F)cn1 [Example 194] | 182 to 184 °C (dec.) | > 90 µg/mL | 0.5 µg/mL (≈ 1.11 µM) | – | 3.92
COc1cc(OCc2ncccc2C(F)(F)F)ccc1-c1[nH]c(C2CCC(F)(F)CC2)nc1Cl [Example 195] | 162 to 164 °C | > 100 µg/mL | 0.6 µg/mL (≈ 1.2 µM) | – | 3.34
COc1cc(-c2[nH]c(C3C4CC5CC(C4)CC3C5)nc2Cl)ccc1OCc1ccc(C(F)(F)F)cn1 (centres unmarked) [Example 201] | 238 to 240 °C (dec.) | 90 µg/mL (≈ 174 µM) | 2.6 µg/mL (≈ 5.02 µM) | – | 2.45
COc1cc(OCc2ccc(C(F)(F)F)nc2)c(C)cc1-c1[nH]c(-c2ccc(F)nc2)nc1Cl [Example 202] | 213 to 215 °C (dec.) | 8.8 µg/mL (≈ 17.9 µM) | < 1.8 µg/mL | – | 3.15
COc1c(OCc2ccc(C(F)(F)F)cn2)ccc(-c2[nH]c(C3CCC(F)(F)CC3)nc2Cl)c1OC [Example 205] | 175 to 177 °C | > 106 µg/mL | < 9.5 µg/mL | – | 5.41
COc1cc(OCc2ncc(C)cc2C)ccc1-c1nc(-c2ccc(F)nc2)[nH]c1Cl [Example 206] | 109 to 124 °C | > 88 µg/mL | 7 µg/mL (≈ 15.9 µM) | – | 2.75
COc1cc(OC(C)c2ccc(C(F)(F)F)cn2)ccc1-c1nc(-c2ccc(F)nc2)[nH]c1Cl (centres unmarked) [Example 207] | 166 to 169 °C | – | 0.4 µg/mL (≈ 0.812 µM) | 83.4 µg/mL (≈ 169 µM) | 2.5
COc1cc(OCc2ccc(C(F)(F)F)cn2)ccc1-c1[nH]c(-c2ccc(Cl)nc2)nc1I [Example 208] | 204 to 208 °C (dec.) | 24.9 µg/mL (≈ 42.4 µM) | < 0.4 µg/mL | – | 4.72
COc1cc(OCc2ccc(C(F)(F)F)cn2)ccc1-c1[nH]c(C2CCC(F)(F)CC2)nc1Cl [Example 210] | 147 to 149 °C | 95.6 µg/mL (≈ 190 µM) | 1.5 µg/mL (≈ 2.99 µM) | – | 5.69
COc1cc(OCc2coc(C)n2)ccc1-c1nc(-c2ccc(Cl)nc2)[nH]c1Cl [Example 211] | 136 to 155 °C | 84.7 µg/mL (≈ 196 µM) | 2.2 µg/mL (≈ 5.1 µM) | – | 2.55
COc1cc(-c2nc(-c3ccc(F)nc3)[nH]c2Cl)ccc1OCc1ncccc1F [Example 212] | 161 to 163 °C | 76.9 µg/mL (≈ 179 µM) | 0.5 µg/mL (≈ 1.17 µM) | – | 2.22
COc1cc(OCn2cccn2)ccc1-c1nc(-c2ccc(Cl)nc2)[nH]c1Cl [Example 213] | 166 to 169 °C | 79.7 µg/mL (≈ 191 µM) | 2.1 µg/mL (≈ 5.04 µM) | – | 2.04
COc1cc(OCc2ncccc2C(F)(F)F)ccc1-c1nc(-c2ccc(F)nc2)[nH]c1Cl [Example 214] | 143 to 146 °C | > 96 µg/mL | 7.1 µg/mL (≈ 14.8 µM) | – | 3.66

Reference: patent US10570117B2, “Phenylimidazole compound” (Otsuka Pharmaceutical Factory, Inc., priority 2015, dated 2020)
